For the assay, the target named is T1, recombinant human NaV1.8 stably transfected HEK cells (Homo sapiens, UniProt Q9Y5Y9).
T1 construct: expressed in transfected cells; host or cells: HEK cells, stably transfected
The experiment in a line: Compound profiling on NaV1.8, human NaV1.8 cell line, SyncroPatch384PE automated patch clamp assay (Example 102, first set of compounds, Table 16). The assay is classed as cell-based. To be noted: human NaV1.8 HEK cells, Table 16 (first set of compounds). The method, then:
Compound Profiling on NaV1.8—Human NaV1.8 Cell Line—SyncroPatch384PE Assay
Compounds were tested on recombinant human NaV1.8 stably transfected HEK cells using the SyncroPatch384PE system, an automated patch clamp device. Cells were cultured at 37° C./5% CO2 in DMEM medium supplemented with GlutaMAX I, NEAA 1%, FBS 10% and seeded in T175 flasks. Cells were cultured at 30° C. one day prior to recording sodium currents. On the day of the recordings, cells were detached with 0.05% Trypsin-EDTA, resuspended in serum free DMEM medium and placed into the SyncroPatch384PE 6° C. pre-cooled cell hotel and shaken at 200 rpm. Intracellular solution (IC) contained, in mM: 10, CsCl; 110, CsF; 20, EGTA; 10, HEPES. Extracellular solution (EC) contained, in mM: 140, NaCl; 4, KCl; 5, Glucose; 10, HEPES; 2, CaCl2; 1, MgCl2. Washing solution contained, in mM: 40, NMDG; 100, NaCl; 4, KCl; 10, Glucose; 10, HEPES; 5, CaCl2; 1, MgCl2.
Compounds were tested in triplicate in 0.1% DMSO and 0.030% Pluronic Acid. Compounds were diluted 1:3 in EC solution to create a 10-point concentration response curve, spanning a final concentration range from 20-0.001 μM in the assay plate. Each plate contained tetracaine and another tool compound as positive controls. Up to 8 compounds were tested on one plate. 250 μM tetracaine and 0.1% DMSO were used as high and low controls, respectively. Whole cell patch clamp recordings were conducted according to Nanion's standard procedure for SyncroPatch384PE®. Cells were held at a holding potential of −120 mV. A depolarization step to 10 mV for 30 ms was applied (P1 measurement), followed by a hyperpolarization step to −100 mV for 100 ms. An inactivation step at −40 mV for 10 sec was applied before stepping to −100 mV for 20 ms, followed by a step to 10 mV for 30 ms (P2 measurement) and then back to −100 mV for 30 ms. Sweep interval was 15 sec with a sampling rate of 10 kHz. Following establishment of the whole-cell configuration in EC, two washing steps with reference buffer were performed to stabilize the baseline. Compounds were then applied by the SynchroPatch into each well and the current was recorded for five minutes in EC, followed by application of tetracaine to achieve full block at the end of the experiment. The potency of the compounds was assessed on two read-outs, resting state block (P1 measurement) or inactivated state block (P2 measurement) to obtain IC50 values. Values were normalized to high (tetracaine) and low (DMSO) controls. The IC50 values are listed in Table 16 as follows: “A” represents an IC50 less than or equal to 20 nM, “B” represents an IC50 greater than 20 nM to less than or equal to 40 nM, “C” represents an IC50 greater than 40 nM to less than or equal to 200 nM, “D” represents an IC50 greater than 200 nM to less than or equal to 500 nM.
(The patch-clamp technique gives a direct electrical read-out from membranes.)

Where [1] appears, read: inactivated state block (P2 measurement), read-out: P2IC50.
[2] abbreviates: resting state block (P1 measurement), read-out: P1IC50.

The text below walks through data of US20240336574A1 (LATIGO BIOTHERAPEUTICS, INC., priority 2021, published 2024).

Each structure is given as a SMILES string. Like-named read-outs stand apart in the source and are kept apart here. A value given as a limit tells only on which side of the number the result lay.

T1 sequence (Q9Y5Y9 whole entry): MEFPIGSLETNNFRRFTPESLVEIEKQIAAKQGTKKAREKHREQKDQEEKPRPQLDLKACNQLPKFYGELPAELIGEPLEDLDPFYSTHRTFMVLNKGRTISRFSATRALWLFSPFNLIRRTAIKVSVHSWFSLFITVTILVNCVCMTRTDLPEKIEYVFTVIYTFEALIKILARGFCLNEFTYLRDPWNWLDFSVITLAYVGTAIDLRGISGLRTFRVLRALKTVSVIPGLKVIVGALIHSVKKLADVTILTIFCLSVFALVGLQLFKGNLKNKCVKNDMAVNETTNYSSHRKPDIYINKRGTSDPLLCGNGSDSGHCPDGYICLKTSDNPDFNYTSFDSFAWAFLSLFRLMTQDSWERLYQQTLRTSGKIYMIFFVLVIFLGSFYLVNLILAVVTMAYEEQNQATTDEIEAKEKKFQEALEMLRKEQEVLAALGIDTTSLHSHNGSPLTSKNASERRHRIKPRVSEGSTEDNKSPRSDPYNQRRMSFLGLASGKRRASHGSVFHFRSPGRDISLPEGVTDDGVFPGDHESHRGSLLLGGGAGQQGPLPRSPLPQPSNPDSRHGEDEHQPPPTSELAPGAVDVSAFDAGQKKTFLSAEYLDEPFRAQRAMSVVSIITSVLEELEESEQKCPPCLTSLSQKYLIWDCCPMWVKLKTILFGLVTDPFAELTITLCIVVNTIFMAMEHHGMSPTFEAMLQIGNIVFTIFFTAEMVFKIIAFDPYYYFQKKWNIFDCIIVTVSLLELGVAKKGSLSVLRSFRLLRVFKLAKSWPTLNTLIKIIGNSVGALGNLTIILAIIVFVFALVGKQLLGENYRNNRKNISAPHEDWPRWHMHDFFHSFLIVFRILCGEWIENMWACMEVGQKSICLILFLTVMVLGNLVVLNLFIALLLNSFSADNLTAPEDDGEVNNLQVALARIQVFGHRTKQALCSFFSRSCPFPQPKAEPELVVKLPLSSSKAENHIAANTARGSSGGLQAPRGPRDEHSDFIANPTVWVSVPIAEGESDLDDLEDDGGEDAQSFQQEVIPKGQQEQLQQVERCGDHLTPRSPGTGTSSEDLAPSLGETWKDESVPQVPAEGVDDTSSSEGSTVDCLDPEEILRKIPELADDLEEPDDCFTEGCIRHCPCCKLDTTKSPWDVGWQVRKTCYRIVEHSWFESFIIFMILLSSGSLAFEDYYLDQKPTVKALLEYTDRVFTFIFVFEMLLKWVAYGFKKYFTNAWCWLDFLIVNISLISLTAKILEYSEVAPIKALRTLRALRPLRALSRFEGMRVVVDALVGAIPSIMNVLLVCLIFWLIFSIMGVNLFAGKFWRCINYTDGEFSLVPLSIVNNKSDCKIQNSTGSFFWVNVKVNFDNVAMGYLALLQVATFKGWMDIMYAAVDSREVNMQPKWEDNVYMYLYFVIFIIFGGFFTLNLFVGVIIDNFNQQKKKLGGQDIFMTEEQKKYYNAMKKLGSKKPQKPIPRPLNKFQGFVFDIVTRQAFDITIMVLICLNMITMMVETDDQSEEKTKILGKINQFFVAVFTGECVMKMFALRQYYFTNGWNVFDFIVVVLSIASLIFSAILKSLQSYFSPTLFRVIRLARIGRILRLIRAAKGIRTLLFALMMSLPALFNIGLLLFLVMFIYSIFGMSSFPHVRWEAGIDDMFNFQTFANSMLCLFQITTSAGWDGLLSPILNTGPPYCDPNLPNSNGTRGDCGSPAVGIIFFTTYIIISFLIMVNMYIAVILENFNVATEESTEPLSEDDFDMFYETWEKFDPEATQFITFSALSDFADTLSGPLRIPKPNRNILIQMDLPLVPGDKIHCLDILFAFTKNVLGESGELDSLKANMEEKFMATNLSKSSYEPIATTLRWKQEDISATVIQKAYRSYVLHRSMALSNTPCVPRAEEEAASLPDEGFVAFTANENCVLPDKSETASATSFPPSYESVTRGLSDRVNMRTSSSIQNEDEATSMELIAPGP

Turning to `COc1cc(C#N)ccc1Oc1nnc(C(F)(F)F)c(C)c1C(=O)Nc1cccc(C(=O)N2CC(C#N)C2)c1` [Compound 1442, N-[3-(3-cyanoazetidine-1-carbonyl)phenyl]-3-(4-cyano-2-methoxy-phenoxy)-5-methyl-6-(trifluoromethyl)pyridazine-4-carboxamide], the IC50 lay in the range of 200 to 500 nM under setting [1] and 200 to 500 nM under setting [2].
For the compound `COc1cc(C#N)ccc1Oc1nnc(C(F)(F)F)c(C)c1C(=O)Nc1cccc(C(=O)NCC2(F)CC2)c1` [Compound 1440, 3-(4-cyano-2-methoxy-phenoxy)-N-[3-[(1-fluorocyclopropyl)methylcarbamoyl]phenyl]-5-methyl-6-(trifluoromethyl)pyridazine-4-carboxamide], the IC50 reads like this: under setting [1], 200 to 500 nM; under setting [2], 200 to 500 nM.
Take `N#Cc1cc(F)ccc1Oc1ncc(C(F)(F)F)cc1C(=O)Nc1cccc(C(N)=O)c1` [Compound 1692]: the IC50 is, setting by setting: under setting [1], 40 to 200 nM; under setting [2], 40 to 200 nM.
As to `COc1c(Oc2nnc(C(F)(F)F)c(C)c2C(=O)Nc2cccc(S(C)(=N)=O)c2)ccc(Cl)c1F` (stereo not shown) [Compound 1489, 3-(4-chloro-3-fluoro-2-methoxy-phenoxy)-5-methyl-N-[3-(methylsulfonimidoyl)phenyl]-6-(trifluoromethyl)pyridazine-4-carboxamide], the IC50 is ≤ 20 nM under setting [1] and ≤ 20 nM under setting [2].
Take `Cc1cccc(Cl)c1Oc1nnc(C(F)(F)F)c(C)c1C(=O)Nc1ccc(C(N)=O)cc1` [Compound 1401]: the IC50 under setting [1] lay within 200 to 500 nM and the IC50 under setting [2] is 200 to 500 nM.
As for `COc1cc(C#N)ccc1Oc1nnc(C(F)(F)F)c(C)c1C(=O)Nc1cccc(S(N)(=O)=O)c1` [Compound 1418], the IC50 was ≤ 20 nM under setting [1] and ≤ 20 nM under setting [2].
`CC(C)Oc1ccc(Oc2ncc(C(F)(F)F)cc2C(=O)Nc2cccc(S(C)(=N)=O)c2)c(F)c1F` (stereo not shown) [Compound 1707]: the IC50 is, setting by setting: under setting [1], ≤ 20 nM; under setting [2], ≤ 20 nM.
`Cc1c(C(F)(F)F)nnc(Oc2ccc(OC(F)(F)F)c(F)c2F)c1C(=O)Nc1cccc(S(C)(=O)=O)c1` [Compound 1419]: the IC50 reads like this: under setting [1], ≤ 20 nM; under setting [2], ≤ 20 nM.
Take `COc1cc(C#N)ccc1Oc1nnc(-c2ccn(C)n2)c(C)c1C(=O)Nc1cccc(S(C)(=N)=O)c1` (stereo not shown) [Compound 1448, 3-(4-cyano-2-methoxy-phenoxy)-5-methyl-6-(1-methylpyrazol-3-yl)-N-[3-(methylsulfonimidoyl)phenyl]pyridazine-4-carboxamide]: the IC50 was 200 to 500 nM under setting [1] and 200 to 500 nM under setting [2].
In the case of `COc1cc(F)ccc1Oc1ncc(C(F)(F)F)cc1C(=O)Nc1cc(S(C)(=O)=O)ccc1F` [Compound 1576], the IC50 runs as follows: under setting [1], 40 to 200 nM; under setting [2], 40 to 200 nM.
`COc1cc(C#N)ccc1Oc1nnc(-c2cncs2)c(C)c1C(=O)Nc1cccc(S(C)(=N)=O)c1` (stereo not shown) [Compound 1460, 3-(4-cyano-2-methoxy-phenoxy)-5-methyl-N-[3-(methylsulfonimidoyl)phenyl]-6-thiazol-5-yl-pyridazine-4-carboxamide]: the IC50 runs as follows: under setting [1], 200 to 500 nM; under setting [2], 200 to 500 nM.
Turning to `COC(=O)c1cccc(NC(=O)c2c(Oc3ccc(C#N)cc3OC)nnc(C(F)(F)F)c2C)c1` [Compound 1546, methyl 3-[[3-(4-cyano-2-methoxy-phenoxy)-5-methyl-6-(trifluoromethyl)pyridazine-4-carbonyl]amino]benzoate], the IC50 by setting is: under setting [1], 40 to 200 nM; under setting [2], 40 to 200 nM.
As for `Cc1nc(Br)ccc1Oc1ncc(C(F)(F)F)cc1C(=O)Nc1cccc(S(C)(=N)=O)c1` (stereo not shown) [Compound 1684], the IC50 was ≤ 20 nM under setting [1] and ≤ 20 nM under setting [2].
Consider `COC(=O)C12CC(NC(=O)c3cc(C(F)(F)F)cnc3Oc3ccc(C#N)cc3OC)(C1)C2` [Compound 1678], for which the IC50 reads like this: under setting [1], 200 to 500 nM; under setting [2], 200 to 500 nM.
With `Cc1c(C(F)(F)F)nnc(Oc2ccc(OC3CCC3)c(F)c2F)c1C(=O)Nc1cccc(S(C)(=N)=O)c1` (single isomer, unassigned) [Compound 1494, 3-(4-cyclobutoxy-2,3-difluorophenoxy)-N-{3-[imino(methyl)oxo-λ^6-sulfanyl]phenyl}-5-methyl-6-(trifluoromethyl)pyridazine-4-carboxamide], the IC50 runs as follows: under setting [1], 20 to 40 nM; under setting [2], ≤ 20 nM.
In the same order, the values of `COc1cc(C#N)ccc1Oc1nnc(C2=CCOC2)c(C)c1C(=O)Nc1cccc(S(C)(=N)=O)c1` (stereo not shown) [Compound 1556, 3-(4-cyano-2-methoxy-phenoxy)-6-(2,5-dihydrofuran-3-yl)-5-methyl-N-[3-(methylsulfonimidoyl)phenyl]pyridazine-4-carboxamide] are 40 to 200 nM and 40 to 200 nM.
As for `Cc1c(Oc2ncc(C(F)(F)F)cc2C(=O)Nc2cccc(S(C)(=N)=O)c2)ccc(OC(F)(F)F)c1F` (single isomer, unassigned) [Compound 1715], the IC50 under setting [2] is ≤ 20 nM.
Take `COc1c(Oc2nnc(C(F)(F)F)c(C)c2C(=O)Nc2cccc(S(C)(=O)=O)c2)ccc(F)c1F` [Compound 1425]: the IC50 reads like this: under setting [1], ≤ 20 nM; under setting [2], ≤ 20 nM.
As to `Cc1nc(OC2CCC2)ccc1Oc1ncc(C(F)(F)F)cc1C(=O)Nc1cccc(S(C)(=N)=O)c1` (stereo not shown) [Compound 1669], the IC50 lay in the range of 40 to 200 nM under setting [1] and 40 to 200 nM under setting [2].
As for `COc1cc(C#N)ccc1Oc1ncc(C2CCOCC2)cc1C(=O)Nc1cccc(S(C)(=N)=O)c1` (stereo not shown) [Compound 1727, 2-(4-cyano-2-methoxy-phenoxy)-N-[3-(methylsulfonimidoyl)phenyl]-5-tetrahydropyran-4-yl-pyridine-3-carboxamide], the IC50 by setting is: under setting [1], 200 to 500 nM; under setting [2], 200 to 500 nM.
In the case of `CO/N=C(\C)c1cccc(NC(=O)c2c(Oc3ccc(C#N)cc3OC)nnc(C(F)(F)F)c2C)c1` [Compound 1545, 3-(4-cyano-2-methoxy-phenoxy)-N-[3-[(E)-N-methoxy-C-methyl-carbonimidoyl]phenyl]-5-methyl-6-(trifluoromethyl)pyridazine-4-carboxamide], the IC50 by setting is: under setting [1], 200 to 500 nM; under setting [2], 200 to 500 nM.
On to `Cc1cc(F)ccc1Oc1nnc(C(F)(F)F)c(C)c1C(=O)Nc1cc(C(N)=O)cc(S(C)(=O)=O)c1` [Compound 1407], for which the IC50 reads like this: under setting [1], 200 to 500 nM; under setting [2], 200 to 500 nM.
`COc1nc(C)ccc1Oc1ncc(C(F)(F)F)cc1C(=O)Nc1cccc(S(C)(=O)=O)c1` [Compound 1608]: the IC50 under setting [1] was ≤ 20 nM and the IC50 under setting [2] is ≤ 20 nM.
In the case of `Cc1cc(OC(F)(F)F)ccc1Oc1ncc(C(F)(F)F)cc1C(=O)Nc1cccc(S(C)(=O)=O)c1` [Compound 1573, N-(3-methylsulfonylpheny1)-2-[2-methyl-4-(trifluoromethoxy)phenoxy]-5-(trifluoromethyl)pyridine-3-carboxamide], the IC50 by setting is: under setting [1], ≤ 20 nM; under setting [2], ≤ 20 nM.
With `COc1c(Oc2nnc(C(F)(F)F)c(C)c2C(=O)Nc2cccc(S(C)(=N)=O)c2)ccc(F)c1F` (single isomer, unassigned) [Compound 1474, 3-(3,4-difluoro-2-methoxy-phenoxy)-5-methyl-N-[3-(methylsulfonimidoyl)phenyl]-6-(trifluoromethyl)pyridazine-4-carboxamide], the IC50 under setting [2] is ≤ 20 nM.
Take `COc1cc(C#N)ccc1Oc1nnc(-c2ccccc2)c(C)c1C(=O)Nc1cccc(S(C)(=N)=O)c1` (stereo not shown) [Compound 1436, 3-(4-cyano-2-methoxyphenoxy)-5-methyl-N-(3-(S-methylsulfonimidoyl)phenyl)-6-phenylpyridazine-4-carboxamide]: the IC50 is, setting by setting: under setting [1], 40 to 200 nM; under setting [2], 20 to 40 nM.
In the same order, the values of `COc1cc(C#N)ccc1Oc1nnc(-c2ccc(C#N)cc2)c(C)c1C(=O)Nc1cccc(S(C)(=N)=O)c1` (stereo not shown) [Compound 1446, 3-(4-cyano-2-methoxy-phenoxy)-6-(4-cyanophenyl)-5-methyl-N-[3-(methylsulfonimidoyl)phenyl]pyridazine-4-carboxamide] are 20 to 40 nM and 20 to 40 nM.
